The experiment deals with T1, human Cystic Fibrosis Transmembrane Conductance Regulator (CFTR) harboring the ΔF508 mutation (Homo sapiens, UniProt P13569, DEL508-508).
T1 construct: expressed in transfected cells; host or cells: H441 carcinoma line (G418 selection)
Nature of the experiment: H441 cell Emax and EC50: HRP-tagged ΔF508-CFTR cell surface luminescence assay. The format is cell-based. The note with it: H441 cells expressing ΔF508-CFTR-HRP, 27° C., two nights; for pEC50: 15-point dose-response, top 24.5 μM; for Emax: NCI-H441, % of maximum VX809 signal. From the text:
Two cell lines were used, the H441 carcinoma line and the CFHBE41o-(41o-) human bronchial epithelial line. Both cell lines expressed human Cystic Fibrosis Transmembrane Conductance Regulator (CFTR) harboring the ΔF508 mutation and with an in-frame fusion in CFTR extracellular loop 4 of Horse Radish Peroxidase (HRP) under control of the CMV promoter. In the presence of the HRP tag, ΔF508-CFTR transported to the cell surface was detectable upon addition of an HRP substrate (Luminata Forte). Both cell types were cultivated at 37° C. with CO2.
For both cell types, the medium was changed every other day unless the culture was at low % confluence. Cells were used for the assays at ˜75% confluence.
To a polypropylene (PP) 384-well plate, 15 μls DMSO was added to all wells in columns 1-22 and 24 (low Control). 15 μls of 260 μM VX809 (Lumacaftor), Selleckchem S1565, was added to column 23 wells (high Control). 15 μls of 10 mM test compound or VX809 (control) were added to wells of row A. Serial dilutions of Row A compound were performed 2×15 μls in rows A through O (15-point).
A PP, 384-well plate containing the appropriate cell culture medium was prepared for each assay plate with 100 μls per well. For the doxycycline-induced 41o-cells, doxycycline for both the assay plate and the medium dilution plate was added at 0.0005 mg/ml to the medium.
Both cell lines were plated for the assay at 30 uls per 384-well at 3.4×10^e5 cells per ml (˜10K cells/well). H441 cells were plated on opaque, white, Corning plate 3704. 41o-cells were plated on collagen-coated opaque, white, Corning plate 356665. For 41o-cells, doxycycline was added to the medium.
Using FX (Beckman) protocol, 10 uls diluted compound or medium was added per well to the Assay Plate as: 2 μls DMSO Dilution plate well is diluted in 100 uls of the Medium Dilution Plate well, mixed, and 10 uls is transferred to the Assay Plate.
The final assay dilution series is 24.5, 12.3, 6.1, 3.1, 1.5, 0.8, 0.4, 0.2, 0.1, 0.05, 0.02, 0.01, 0.006, 0.003, 0.001 and 0 μM. The 41o-assay plates were incubated at 37° C. w/CO2, the H441 assay plates were incubated at 27° C. w/CO2, each overnight for two nights.
After being brought to room temperature, the assay plate liquid was removed. 30 μls of Luminata Forte (Millipore ELLUF0100) was added per well and incubated at room temperature for 10 min. The plates were then read on a Topcount, protocol LumiMatti (CPS, luminescence). The data was analyzed for % of maximum, maximum VX809 signal, and EC50 using Pearl and SPEED tools.

Each structure is given as a SMILES string. pEC50: −log10 of the molar value. A value given as a limit tells only on which side of the number the result lay.

T1 sequence (P13569 with tags, fused parts or gaps DEL508-508): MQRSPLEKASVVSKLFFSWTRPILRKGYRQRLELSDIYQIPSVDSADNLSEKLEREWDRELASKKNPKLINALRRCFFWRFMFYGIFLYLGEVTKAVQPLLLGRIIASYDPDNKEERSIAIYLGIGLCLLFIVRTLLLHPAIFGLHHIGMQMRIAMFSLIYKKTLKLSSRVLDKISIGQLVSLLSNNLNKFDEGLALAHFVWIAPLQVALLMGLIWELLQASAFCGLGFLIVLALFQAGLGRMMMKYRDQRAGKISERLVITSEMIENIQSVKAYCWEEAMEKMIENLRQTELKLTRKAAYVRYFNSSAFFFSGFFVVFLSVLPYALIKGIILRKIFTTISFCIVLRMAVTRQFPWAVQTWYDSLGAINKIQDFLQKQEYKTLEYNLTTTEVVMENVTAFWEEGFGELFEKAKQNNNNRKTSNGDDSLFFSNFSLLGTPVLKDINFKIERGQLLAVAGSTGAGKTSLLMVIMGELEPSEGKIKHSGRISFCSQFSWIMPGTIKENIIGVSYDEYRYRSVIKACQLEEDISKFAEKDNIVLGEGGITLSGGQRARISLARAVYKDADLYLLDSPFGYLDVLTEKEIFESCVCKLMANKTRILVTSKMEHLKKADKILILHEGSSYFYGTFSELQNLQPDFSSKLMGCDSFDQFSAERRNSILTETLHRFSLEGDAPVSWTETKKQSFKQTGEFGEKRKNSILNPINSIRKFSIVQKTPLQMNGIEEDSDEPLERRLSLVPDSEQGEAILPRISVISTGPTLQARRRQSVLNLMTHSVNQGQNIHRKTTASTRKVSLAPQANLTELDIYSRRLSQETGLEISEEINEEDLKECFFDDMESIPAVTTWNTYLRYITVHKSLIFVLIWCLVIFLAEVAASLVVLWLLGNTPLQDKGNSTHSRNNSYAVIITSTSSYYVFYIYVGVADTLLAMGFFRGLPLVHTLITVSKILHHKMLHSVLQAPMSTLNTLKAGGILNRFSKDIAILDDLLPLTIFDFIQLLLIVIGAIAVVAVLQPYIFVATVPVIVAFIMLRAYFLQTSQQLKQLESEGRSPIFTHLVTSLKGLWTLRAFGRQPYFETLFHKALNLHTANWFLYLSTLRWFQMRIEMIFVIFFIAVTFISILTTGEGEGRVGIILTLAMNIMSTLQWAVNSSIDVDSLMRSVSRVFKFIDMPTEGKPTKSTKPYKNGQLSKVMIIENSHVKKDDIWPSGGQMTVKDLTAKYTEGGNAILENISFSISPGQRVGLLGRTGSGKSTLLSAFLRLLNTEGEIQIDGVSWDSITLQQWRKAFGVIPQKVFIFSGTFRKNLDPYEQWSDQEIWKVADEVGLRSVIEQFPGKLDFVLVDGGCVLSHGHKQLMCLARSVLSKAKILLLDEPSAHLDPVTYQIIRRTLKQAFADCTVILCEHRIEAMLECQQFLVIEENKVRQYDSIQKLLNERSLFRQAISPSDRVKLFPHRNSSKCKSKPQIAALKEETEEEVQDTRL

The term pEC50 denotes the EC50 on a negative log10 scale, so that one unit is a factor of ten. Read a low pEC50 as a high EC50. The term Emax denotes the greatest response seen or fitted, relative to the assay's reference. For `O=C(N[C@H](C(=O)O)C12CC3CC(CC(C3)C1)C2)c1ccc2c(F)cccc2c1OCc1ccc(C(F)(F)F)cc1` [compound 1], the pEC50 was 6.69 and the maximal effect (Emax) worked out at 176%.
On the same counts, the results for `O=C(N[C@H](C(=O)O)C12CC3CC(CC(C3)C1)C2)c1ccc2ccccc2c1OCc1ccc(SC(F)(F)F)cc1` [compound 2] are 6.41 and 154%.
The compound `O=C(N[C@H](C(=O)O)C12CC3CC(CC(C3)C1)C2)c1cc(F)c2ccccc2c1OCc1ccc(C(F)(F)F)cc1` [compound 3] gave a pEC50 of 6.39 and an Emax of 156%.
Regarding `O=C(N[C@H](C(=O)O)C12CC3CC(CC(O)(C3)C1)C2)c1ccc2cc(F)ccc2c1OCc1ccc(SC(F)(F)F)cc1` [compound 4], the negative-log EC50 (pEC50) was 6.00 and the Emax was found to be 55.7%.
On the same counts, the results for `O=C(N[C@H](C(=O)O)C12CC3CC(CC(C3)C1)C2)c1ccc2cccnc2c1OCC1CCCCC1` [compound 5] are 5.94 and 249%.
On the same counts, the results for `O=C(N[C@H](C(=O)O)C12CC3CC(CC(OCC(F)(F)F)(C3)C1)C2)c1ccc2ccccc2c1OCc1ccc(C(F)(F)F)cc1` [compound 6] are 6.90 and 233%.
Compound `O=C(N[C@H](C(=O)O)C12CC3CC(CC(C3)C1)C2)c1ccc2ccccc2c1OCc1ccc(OC(F)(F)F)cc1` [compound 8] had a pEC50 of 5.86 and an Emax of 176%.
In the case of `CS(=O)(=O)c1ccc(COc2c(C(=O)N[C@H](C(=O)O)C34CC5CC(CC(O)(C5)C3)C4)ccc3ccccc23)cc1` [compound 10], the pEC50 is 4.77 and the Emax was determined as 29.2%.
`CC(C)OC12CC3CC(C1)CC([C@H](NC(=O)c1ccc4ccccc4c1OCc1ccc(C(F)(F)F)cc1)C(=O)O)(C3)C2` [compound 11] had a pEC50 of 6.40 and an Emax of 157%.
Take `COc1cccc2c(OCc3ccc(C(F)(F)F)cc3)c(C(=O)N[C@H](C(=O)O)C34CC5CC(CC(C5)C3)C4)ccc12` [compound 12]: the pEC50 is 6.15 and the Emax came to 154%.
The compound `O=C(N[C@H](C(=O)O)C12CC3CC(CC(O)(C3)C1)C2)c1sc2ccccc2c1OCc1ccc(OC(F)(F)F)cc1` [compound 13] had a pEC50 of 5.46 and an Emax of 87.3%.
As to `COC(=O)[C@@H](NC(=O)c1ccc2ccccc2c1OCc1ccc(C(F)(F)F)cc1)C12CC3CC(CC(O)(C3)C1)C2` [compound 14], the pEC50 was ≤ 4.61 and the Emax was determined as 29.9%.
Take `O=C(N[C@H](C(=O)O)C12CC3CC(CC(C3)C1)C2)c1sc2ccccc2c1OCc1ccc(C(F)(F)F)cc1` [compound 15]: the negative logarithm of the EC50 (pEC50) was 6.48 and the Emax is 158%.
On the same counts, the results for `O=C(N[C@H](C(=O)O)C12CC3CC(CC(C3)C1)C2)c1ccc2cc(F)ccc2c1OCC1CCC(F)(F)CC1` [compound 16] are 5.76 and 90%.
Regarding `O=C(N[C@H](C(=O)O)C12CC3CC(CC(O)(C3)C1)C2)c1ccc2ccccc2c1OCc1ccc(C(F)(F)F)cc1` [compound 17], the negative-log EC50 (pEC50) is 6.04 and the Emax amounted to 156%.
`Cc1ccc2ccc(C(=O)N[C@H](C(=O)O)C34CC5CC(CC(C5)C3)C4)c(OCc3ccc(C(F)(F)F)cc3)c2c1` [compound 18] gave a pEC50 of 5.66 and an Emax of 370%.
`O=C(N[C@H](C(=O)O)C12CC3CC(CC(OCCO)(C3)C1)C2)c1ccc2ccccc2c1OCc1ccc(C(F)(F)F)cc1` [compound 20] had a pEC50 of 6.11 and an Emax of 144%.
The corresponding values for `O=C(N[C@H](C(=O)O)C12CC3CC(CC(O)(C3)C1)C2)c1ccc2cc(F)ccc2c1OCC1CCC(F)(F)CC1` [compound 21] are 5.39 and 32.5%.
As to `O=C(N[C@H](C(=O)O)C12CC3CC(CC(O)(C3)C1)C2)c1ccc2cccnc2c1OCc1ccc(C(F)(F)F)cc1` [compound 22], the negative logarithm of the EC50 (pEC50) was 5.44 and the maximal response (Emax) was 175%.
The corresponding values for `O=C(N[C@H](C(=O)O)C12CC3CC(CC(C3)C1)C2)c1sc2ccccc2c1OCc1ccc(Cl)c(Cl)c1` [compound 24] are 6.14 and 159%.
Consider `O=C(N[C@H](C(=O)O)C12CC3CC(CC(OCCF)(C3)C1)C2)c1ccc2cc(F)ccc2c1OCc1ccc(C(F)(F)F)cc1` [compound 25], for which the pEC50 is 6.64 and the Emax came out at 106%.
In the case of `O=C(N[C@H](C(=O)O)C12CC3CC(CC(OCC(F)(F)F)(C3)C1)C2)c1ccc2cc(F)ccc2c1OCc1ccc(C(F)(F)F)cc1` [compound 26], the negative-log EC50 (pEC50) was 6.74 and the Emax was 113%.
`CCOC12CC3CC(C1)CC([C@H](NC(=O)c1ccc4ccccc4c1OCc1ccc(C(F)(F)F)cc1)C(=O)O)(C3)C2` [compound 27] gave a negative logarithm of the EC50 (pEC50) of 6.82 and a maximal effect (Emax) of 215%.
The corresponding values for `O=C(N[C@H](C(=O)O)C12CC3CC(CC(O)(C3)C1)C2)c1ccc2ccccc2c1OCC1CCCCC1` [compound 30] are 5.84 and 96.8%.
`O=C(N[C@H](C(=O)O)C12CC3CC(CC(C3)C1)C2)c1ccc2cccnc2c1OCc1ccc(Cl)c(Cl)c1` [compound 31] gave a pEC50 of 6.51 and an Emax of 194%.
The corresponding values for `O=C(N[C@H](C(=O)O)C12CC3CC(CC(C3)C1)C2)c1sc2cc(Cl)ccc2c1OCc1ccc(C(F)(F)F)cc1` [compound 32] are 6.40 and 105%.
Consider `O=C(N[C@H](C(=O)O)C12CC3CC(CC(O)(C3)C1)C2)c1ccc2cc(F)ccc2c1OCc1ccc(C(F)(F)F)cc1` [compound 33], for which the pEC50 was 6.12 and the maximal response (Emax) came out at 100%.
As to `Cc1ccc2ccc(C(=O)N[C@H](C(=O)O)C34CC5CC(CC(C5)C3)C4)c(OCc3ccc(OC(F)(F)F)cc3)c2c1` [compound 34], the pEC50 was 6.31 and the Emax was determined as 264%.
In turn, `O=C(N[C@H](C(=O)O)C12CC3CC(CC(O)(C3)C1)C2)c1ccc2ccccc2c1OCc1ccc(OC(F)(F)F)cc1` [compound 35] had a negative logarithm of the EC50 (pEC50) of 5.95 and an Emax of 141%.
In turn, `C[C@@H](OC12CC3CC(C1)CC([C@H](NC(=O)c1ccc4cc(F)ccc4c1OCc1ccc(C(F)(F)F)cc1)C(=O)O)(C3)C2)C(=O)O` [compound 36] came in with an Emax of 0.9%.
`O=C(N[C@H](C(=O)O)C12CC3CC(CC(C3)C1)C2)c1ccc2cc(O)ccc2c1OCc1ccc(C(F)(F)F)cc1` [compound 37]: the negative logarithm of the EC50 (pEC50) was 6.81 and the Emax is 132%.
For `COc1ccc2c(OCc3ccc(C(F)(F)F)cc3)c(C(=O)N[C@H](C(=O)O)C34CC5CC(CC(C5)C3)C4)ccc2c1` [compound 38], the pEC50 was 6.88 and the Emax was 56.2%.
`CS(=O)(=O)CCOC12CC3CC(C1)CC([C@H](NC(=O)c1ccc4cc(F)ccc4c1OCc1ccc(C(F)(F)F)cc1)C(=O)O)(C3)C2` [compound 39] showed a negative-log EC50 (pEC50) of 5.67 and an Emax of 102%.
Turning to `O=C(N[C@H](C(=O)O)C12CC3CC(CC(C3)C1)C2)c1ccc2ccccc2c1OCc1ccc(C(F)(F)C(F)(F)F)cc1` [compound 40], the pEC50 is 6.95 and the Emax was determined as 149%.
Take `O=C(N[C@H](C(=O)O)C12CC3CC(CC(C3)C1)C2)c1ccc2cccnc2c1OCc1ccc(C(F)(F)F)cc1` [compound 41]: the pEC50 was 6.33 and the Emax amounted to 173%.
In turn, `COCCOC12CC3CC(C1)CC([C@H](NC(=O)c1ccc4ccccc4c1OCc1ccc(C(F)(F)F)cc1)C(=O)O)(C3)C2` [compound 43] showed a pEC50 of 6.57 and an Emax of 128%.
On the same counts, the results for `O=C(N[C@H](C(=O)O)C12CC3CC(CC(C3)C1)C2)c1ccc2cc(F)ccc2c1OCC1CCCCC1` [compound 45] are 6.03 and 142%.
`O=C(N[C@H](C(=O)O)C12CC3CC(CC(O)(C3)C1)C2)c1ccc2cc(F)ccc2c1OCc1ccc(OC(F)(F)F)cc1` [compound 46] registered an Emax of 3.8%.

The values are drawn from patent US12637414B2, “Arylamides and methods of use thereof” (Genzyme Corporation, priority 2019, dated 2026).
